In the assay the target is T1, Aurora A (Homo sapiens, UniProt O14965).
T1 construct: gene AURKA
T1 sequence (O14965 1-403): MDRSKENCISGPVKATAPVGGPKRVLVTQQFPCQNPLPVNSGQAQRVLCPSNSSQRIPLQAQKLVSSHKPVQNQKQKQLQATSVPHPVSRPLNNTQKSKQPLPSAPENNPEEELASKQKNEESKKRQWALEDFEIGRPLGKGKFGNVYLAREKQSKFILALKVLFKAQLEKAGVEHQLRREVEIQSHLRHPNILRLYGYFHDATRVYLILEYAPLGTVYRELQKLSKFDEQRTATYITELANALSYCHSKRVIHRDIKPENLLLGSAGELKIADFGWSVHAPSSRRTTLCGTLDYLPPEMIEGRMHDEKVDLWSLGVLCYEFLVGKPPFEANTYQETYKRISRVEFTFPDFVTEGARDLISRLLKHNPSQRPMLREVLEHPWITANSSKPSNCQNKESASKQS
The experiment in a line: radiometric […]-ATP kinase assay with purified kinase (Dundee panel; dose-response). It is filed as biochemical.

From article PMC5351590, “Cucurbitacin B exerts anti-cancer activities in human multiple myeloma cells in vitro and in vivo by modulating multiple cellular pathways” (Oncotarget, 2016) come the findings set out here.

Usually IC50 stands for the concentration that gives 50% inhibition. The low end stands for greater potency in that assay, the high end for weaker potency in that assay.

Compound `CC(=O)OC(C)(C)/C=C/C(=O)[C@](C)(O)[C@H]1[C@H](O)C[C@@]2(C)[C@@H]3CC=C4[C@@H](C[C@H](O)C(=O)C4(C)C)[C@]3(C)C(=O)C[C@]12C` [CuB, Cucurbitacin B] showed an IC50 of 100 nM.
